From US20180312493A1, “Antibiotic Compounds, Pharmaceutical Formulations Thereof And Methods And Uses Therefor” (Simon Fraser University, priority 2015, published 2018)
Values after ≈ are worked out from the molar mass of the structure shown. Counter-ions that a name gives are not always drawn. Like-named read-outs stand apart in the source and are kept apart here.

Columns and labels:
[1] = molecular target: T1, MRSA Pyk (Staphylococcus aureus, UniProt Q6GG09); experiment: MRSA pyruvate kinase (PK) activity, continuous LDH-coupled assay; format: biochemical, methicillin resistant S. aureus (MRSA252)
T1 construct: made in house; host or cells: E. coli BL-21 (DE3)
Summary of the method: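 His-tagged MRSA PK (strain Sanger 252) and human PK isoforms expressed in E. coli BL-21 (DE3) and Ni-NTA purified, used at 15 nM in an LDH-coupled assay following NADH oxidation at 340 nm, 30° C, up to 5 min, ≤1% DMSO. IC50 from four-parameter variable-slope fit; Ki with PEP 2-20 mM, ADP fixed 2 mM, inhibitor 0-400 nM.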

[2] = tested on: K. pneumoniae (C238); experiment: In vitro susceptibility, broth microdilution (MIC); format: cell-based; conditions: Klebsiella pneumoniae; K. pneumoniae (C238); read-out: Antimicrobial activity (MIC) K. pneumoniae
Summary of the method: (§1)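 CLSI 2-fold serial broth microdilution; K. pneumoniae C238 grown in L-broth, S. aureus ATCC 29213 in Mueller Hinton broth, plates incubated 18–24 h at 37 °C. MIC taken as lowest concentration giving complete growth inhibition by OD600 versus compound-free wells, background-subtracted.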

[3] = tested on: S. aureus (ATCC29213); experiment: In vitro susceptibility, broth microdilution (MIC); format: cell-based; conditions: Staphylococcus aureus
Summary of the method: as §1

[4] = tested on: VRE#2 (2010A); experiment: In vitro susceptibility, broth microdilution (MIC); format: cell-based, vancomycin resistant Enterococci; conditions: read-out: Antimicrobial activity (MIC) VRE#2
Summary of the method: (§2)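 MIC determined by CLSI 2-fold broth microdilution in cation-adjusted Mueller–Hinton broth at ~2.5×10^5 CFU/ml, final compound 0.031–64 μg/ml, 18–24 h at 37 °C. MIC is the lowest concentration giving complete growth inhibition by background-corrected OD600 versus compound-free wells; duplicate or triplicate wells, replicated at least twice.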

[5] = tested on: A. baumannii (ATCC 19606); experiment: In vitro susceptibility, broth microdilution (MIC); format: cell-based; conditions: Acinetobacter baumannii
Text: (§3) Epidemic methicillin resistant S. aureus (MRSA) strain sequenced at the Sanger Centre (MRSA252, NRS71) was obtained from NARSA (Network on Antimicrobial Resistance in S. aureus). Methicillin sensitive S. aureus (ATCC 29213 and 25923), methicillin resistant S. aureus (ATCC BAA-1762), and Salmonella typhimurium (ATCC BAA-185) were obtained from ATCC, The Global Bioresource Center. Acinetobacter baumannii (ATCC 19606 and ATCC 17978), Klebsiella pneumonia (C238), vancomycin resistant Enterococci #2 (2010A) (VRE#2), MRSA (USA400, MW2) and Pseudomonas aeruginosa (PA0-1) were obtained from the laboratory of Dr B. B. Finlay at the University of British Columbia (Vancouver, Canada).
(§4) The antimicrobial activities of PK inhibitor candidates were determined using the 96-well microtiter standard 2-fold serial broth microdilution method as described by CLSI (formerly NCCLS) with the various gram-positive and gram-negative bacteria species mentioned above. Bacteria from a single colony were grown, overnight in either BHI Broth (VRE), mueller hinton broth (S. aureus 29213; MRSA USA400, A. baumannii 19606, MRSA BAA-1762) or L-broth (P. aeruginosa, S. typhimurium, K. pneumonia and A. baumannii 17978). Each compound was prepared in DMSO with 2-fold serial dilutions to give a final concentration of, 0.031 to 64 μg/ml. 10 μl of the compound solution was then added, in duplicate, to either, 190 μl of cation adjusted mueller hinton broth (CAMHB) or 190 μl CAMHB containing ˜2.5×10^5 CFU/ml of bacteria (final compound concentration 0.031 to 64 μg/ml). Culture plates were incubated for 18-24 h at 37° C., and optical density at 600 nm (OD600) was measured using a Benchmark Plus™ microplate spectrophotometer (Bio-Rad™). The absorbance control values for the series containing CAMHB and inhibitor were subtracted as background from the corresponding infected wells. Minimal inhibitory concentration (MIC) was defined as the lowest concentration of test compound leading to complete inhibition of cell growth in relation to compound-free control wells as determined by optical density. Vancomycin, methicillin and ciprofloxicin were used as reference compounds. All assays were run in triplicate or duplicate. Experiments were replicated at least twice to verify reproducibility using the above conditions.

[6] = tested on: A. baumannii (ATCC 17978); experiment: In vitro susceptibility, broth microdilution (MIC); format: cell-based; conditions: Acinetobacter baumannii, ATCC17978; A. baumannii ATCC 17978 (values marked *); read-out: Antimicrobial activity (MIC) A. baumannii
Text: as §3, §4

[7] = tested on: MRSA (ATCC BAA-1762); experiment: In vitro susceptibility, broth microdilution (MIC); format: cell-based, methicillin resistant S. aureus; conditions: Staphylococcus aureus, read-out: Antimicrobial activity (MIC) MRSA ATCC BAA1762
Summary of the method: as §2

[8] = S. aureus ATCC29213, 18-24 h, 37 C, read-out: Antimicrobial activity (MIC) S. aureus ATCC29213
[9] = ATCC19606, A. baumannii ATCC 19606 (values without asterisk), read-out: Antimicrobial activity (MIC) A. baumannii

T1 sequence (Q6GG09 whole entry): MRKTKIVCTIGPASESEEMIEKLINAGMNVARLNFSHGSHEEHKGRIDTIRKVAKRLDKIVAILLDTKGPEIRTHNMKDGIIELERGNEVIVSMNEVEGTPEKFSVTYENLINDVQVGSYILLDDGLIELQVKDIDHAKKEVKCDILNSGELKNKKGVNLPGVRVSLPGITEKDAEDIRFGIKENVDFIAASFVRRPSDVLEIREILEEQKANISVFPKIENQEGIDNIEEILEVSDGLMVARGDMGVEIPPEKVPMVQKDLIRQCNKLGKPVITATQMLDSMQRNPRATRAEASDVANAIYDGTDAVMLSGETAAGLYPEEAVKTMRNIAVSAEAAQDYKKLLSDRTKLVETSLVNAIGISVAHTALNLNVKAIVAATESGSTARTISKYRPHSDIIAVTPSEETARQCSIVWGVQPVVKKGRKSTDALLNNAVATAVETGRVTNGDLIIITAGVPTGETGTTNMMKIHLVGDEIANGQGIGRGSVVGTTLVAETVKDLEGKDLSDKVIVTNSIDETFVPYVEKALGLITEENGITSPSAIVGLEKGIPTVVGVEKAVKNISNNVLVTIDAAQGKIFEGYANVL

Compound	IC50 [1] [nM]	MIC [2] [µg/mL]	MIC [3, 8] [µg/mL]	MIC ([4]; VRE#2 (2010A)) [µg/mL]	MIC [5, 9] [µg/mL]	MIC [6] [µg/mL]	MIC ([7]; MRSA ATCC BAA-1762) [µg/mL]	MIC ([3]; ATCC29213, read-out: Antimicrobial activity (MIC) S. aureus ATCC29213) [µg/mL]	MIC [7] [µg/mL]	MIC [4] [µg/mL]	MIC ([5]; ATCC19606, read-out: Antimicrobial activity (MIC) A. baumannii) [µg/mL]
CN(C)CCNC(=O)c1c(-c2cc3cc(Cl)ccc3[nH]2)[nH]c2cc(Br)ccc12 [Compound 73, 6-Bromo-5′-chloro-N-(2-(dimethylamino)ethyl)-1H,1′H-[2,2′-biindole]-3-carboxamide]	< 100	8 (≈ 17.4 µM)	8 (≈ 17.4 µM)	8 (≈ 17.4 µM)	64 (≈ 139 µM)						
COC(CNC(=O)c1c(-c2cc3cc(Cl)ccc3[nH]2)[nH]c2cc(Br)ccc12)OC [Compound 134, 6-Bromo-5′-chloro-N-(2,2-dimethoxyethyl)-1H,1′H-[2,2′-biindole]-3-carboxamide]			> 64			> 64					
CN(C)CCn1c(-c2cc3ccc(Br)cc3[nH]2)nc2cc(Cl)c(Cl)cc21 [Compound 212, 2-(2-(6-Bromo-1H-indol-2-yl)-5,6-dichloro-1H-benzo[d]imidazol-1-yl)-N,N-dimethylethan-1-amine]			> 64			> 64					
CCOC(CCCNC(=O)c1c(-c2cc3cc(Cl)ccc3[nH]2)[nH]c2cc(Br)ccc12)OCC [Compound 135, 6-Bromo-5′-chloro-N-(4,4-diethoxybutyl)-1H,1′H-[2,2′-biindole]-3-carboxamide]			> 64			> 64					
CN1CCC(CCNC(=O)c2c(/C=C/c3ccc(Cl)cc3)[nH]c3cc(Br)ccc23)CC1 [Compound 40, (E)-6-Bromo-2-(4-chlorostyryl)-N-(2-(1-methylpiperidin-4-yl)ethyl)-1 H-indole-3-carboxamide]	100 to 1000	16 (≈ 31.9 µM)	8 (≈ 16 µM)	8 (≈ 16 µM)	> 64						
COC(=O)C[N+](C)(C)CCON=C(c1c(-c2cc3cc(Cl)ccc3[nH]2)[nH]c2cc(Br)ccc12)C(F)(F)F (racemic) [Compound 222, N-(2-(((1-(6-Bromo-5′-chloro-1H,1′H-[2,2′-biindol]-3-yl)-2,2,2-trifluoroethylidene)amino)oxy)ethyl)-2-methoxy-N,N-dimethyl-2-oxoethan-1-aminium Bromide]	< 100		2	4	32		2				
CN1CCN(CCNC(=O)COc2cc3[nH]c(-c4cc5ccc(Br)cc5[nH]4)cc3cc2Cl)C(c2ccccc2)C1 (stereo not shown) [Compound 194, 2-((6′-Bromo-5-chloro-1H,1′H-[2,2′-biindol]-6-yl)oxy)-N-(2-(4-methyl-2-phenylpiperazin-1-yl)ethyl)acetamide]			> 64			> 64					
CN(C)CC(=O)OCCCNC(=O)c1c(-c2cc3cc(Cl)ccc3[nH]2)[nH]c2cc(Br)ccc12 [Compound 184, 3-(6-Bromo-5′-chloro-1H, 1′H-[2,2′-biindole]-3-carboxamido)propyl Dimethylglycinate]	< 100		> 64	> 64	> 64		16 (≈ 30.1 µM)				
CN1CCCN(CCCNC(=O)c2c(-c3cc4cc(Cl)ccc4[nH]3)[nH]c3cc(Br)ccc23)CC1 [Compound 118, 6-Bromo-5′-chloro-N-(3-(4-methyl-1,4-diazepan-1-yl)propyl)-1H,1′H-[2,2′-biindole]-3-carboxamide]	< 100		16 (≈ 29.5 µM)	8 (≈ 14.7 µM)	32 (≈ 58.9 µM)		16 (≈ 29.5 µM)				
O=C(Nc1nc2cc(Br)ccc2s1)Nc1ccc(Cl)cc1C(F)(F)F [Compound 157, 1-(5-bromobenzo[d]thiazol-2-yl)-3-(4-chloro-2-(trifluoromethyl)phenyl)urea]						> 64					
O=C(Nc1ccc([N+](=O)[O-])cc1)Nc1nc2cc(Br)ccc2s1 [Compound 154, 1-(5-bromobenzo[d]thiazol-2-yl)-3-(4-nitrophenyl)urea]			> 64			> 64					
CNCCNC(=O)c1c(-c2cc3cc(Cl)ccc3[nH]2)[nH]c2cc(Br)ccc12 [Compound 136, 6-Bromo-5′-chloro-N-(2-(methylamino)ethyl)-1H,1′H-[2,2′-biindole]-3-carboxamide]	< 100		8 (≈ 17.9 µM)	8 (≈ 17.9 µM)	16 (≈ 35.9 µM)		8 (≈ 17.9 µM)				
C[n+]1ccc(CCNC(=O)c2c(-c3cc4cc(Cl)ccc4[nH]3)[nH]c3cc(Br)ccc23)cc1 [Compound 149, 4-(2-(6-bromo-5′-chloro-1H,1′H-[2,2′-biindole]-3-carboxamido)ethyl)-1-methylpyridin-1-ium]	< 100		16	16	> 64		16				
CN1CCCN(CCNC(=O)c2c(-c3cc4cc(Cl)ccc4[nH]3)[nH]c3cc(Br)ccc23)CC1 [Compound 119, 6-Bromo-5′-chloro-N-(2-(4-methyl-1,4-diazepan-1-yl)ethyl)-1H,1′H-[2,2′-biindole]-3-carboxamide]	< 100		16 (≈ 30.3 µM)	8 (≈ 15.1 µM)	64 (≈ 121 µM)		16 (≈ 30.3 µM)				
N.O=C(O)CON=C(c1c(-c2cc3cc(Cl)ccc3[nH]2)[nH]c2cc(Br)ccc12)C(F)(F)F (racemic) [Compound 219, Ammonium 2-(((1-(6-bromo-5′-chloro-1H,1′H-[2,2′-biindol]-3-yl)-2,2,2-trifluoroethylidene)amino)oxy)acetate]	< 100		8	4	> 64		8				
C[N+](C)(C)CCCNC(=O)COc1cc2[nH]c(-c3cc4ccc(Br)cc4[nH]3)cc2cc1Cl [Compound 191, 3-(2-((6′-Bromo-5-chloro-1H,1′H-[2,2′-biindol]-6-yl)oxy)acetamido)-N,N,N-trimethylpropan-1-aminium Formate]	< 100							16	16	16	> 64
CCNCCNC(=O)c1c(-c2cc3cc(Cl)ccc3[nH]2)[nH]c2cc(Br)ccc12 [Compound 137, 6-Bromo-5′-chloro-N-(2-(ethylamino)ethyl)-1H,1′H-[2,2′-biindole]-3-carboxamide]	< 100		8 (≈ 17.4 µM)	8 (≈ 17.4 µM)	32 (≈ 69.6 µM)		8 (≈ 17.4 µM)				
C[n+]1ccccc1CCNC(=O)c1c(-c2cc3cc(Cl)ccc3[nH]2)[nH]c2cc(Br)ccc12 [Compound 150]	< 100		16	32	> 64		16				
COc1cc2[nH]c(-c3[nH]c4cc(Br)ccc4c3C(=O)C(F)(F)F)cc2cc1Cl [Compound 200, 1-(6-Bromo-5′-chloro-6′-methoxy-1H, 1′H-[2,2′-biindol]-3-yl)-2,2,2-trifluoroethan-1-one]	< 100		4 (≈ 8.48 µM)	1 (≈ 2.12 µM)	> 64		1 (≈ 2.12 µM)				
